The values that follow come from patent US20120328536A1, “Taste Improving Substances” (QUEST INTERNATIONAL SERVICES B.V., priority 2006, published 2012).

Assay [1] can be described thus: Tasting of Odol mouthwater by a professional panel. Particulars: 50 ppm in Odol mouthwater. The protocol: Commercially available Odol mouthwater (GlaxoSmithKline) was obtained from a local pharmacy and 4 solutions were prepared.
To a first sample (sample A), 50 ppm of N-(2-hydroxyethyl) 5-hydroxyhexanoyl amide (as prepared in example 1) was added. Samples A was tasted by a professional panel and compared with the mouthwater without added N-(2-hydroxyethyl) 5-hydroxyhexanoyl amide.

A short description of assay [2]: Tasting of 3% alcohol in water by a professional panel. Conditions: 50 ppm in 3% alcohol in water. The protocol:
Two solutions of 3% alcohol in water were prepared. To one sample (sample A), 50 ppm of N-(2-hydroxyethyl) 5-hydroxyhexanoyl amide (as prepared in example 1) was added. The other sample was used as the reference sample. Both samples were tasted by a professional panel.

The nature of assay [3]: Tasting of toothpaste by a professional panel. Particulars: 50 ppm in commercial toothpaste. On the procedure: Commercially available toothpaste was obtained from a local pharmacy and 4 samples of paste were prepared.
To a first sample (sample A), 50 ppm of N-(2-hydroxyethyl) 5-hydroxyhexanoyl amide (as prepared in example 1) was added and homogenized. Samples A was tasted by a professional panel and compared with the toothpaste without added N-(2-hydroxyethyl) 5-hydroxyhexanoyl amide.

The nature of assay [4]: Tasting of menthol fondant by a professional panel. Particulars: 50 ppm in fondant with 2500 ppm menthol. The protocol:
Two samples of fondant were prepared by mixing 65 Fondacreme (ex Belgosuc NV Belgium) with 35% sugar syrup (67° Brix). 2500 Ppm menthol was added as a 50% solution in propylene glycol. To a first sample (sample A), 50 ppm of N-(2-hydroxyethyl) 5-hydroxyhexanoyl amide (as prepared in example 1) was added. The second sample was the reference sample. The Samples were tasted by a professional panel.

Assay [5] in a line: Tasting of NaCl/MSG/pepper oleoresin solution by a professional panel. Conditions: 50 ppm in 0.6% NaCl, 0.03% MSG, 4 ppm pepper oleoresin. On the procedure:
Two solutions of 0.6% NaCl and 0.03% MSG and 4 ppm pepper oleoresin (ex Warner Jenkinson, St Louis, USA) were prepared. To one sample (sample A), 50 ppm of N-(2-hydroxyethyl) 5-hydroxyhexanoyl amide (as prepared in example 1) was added. The other sample was used as the reference. Both samples were tasted by a professional panel.

As for “N-(2-hydroxyethyl) 5-hydroxyhexanoyl amide”, in assay [1], the “cooling in the oral cavity” value is “more aggressive cooling in the whole oral cavity”; the “initial cooling and mouth-coating” value is “more initial cooling and more mouth-coating”; the “overall impact compared with mouthwater without the amide” value is recorded as “stronger overall impact”. Moreover, in assay [2], the “alcohol impression compared to the reference sample” value is reported as “alcohol-boosting effect” and the “ethanol water mixture that the sample tasted like” value is listed as 5-6%. Besides, in assay [3], the “cooling in the oral cavity” value is “more aggressive cooling in the whole oral cavity”; the “initial cooling and mouth-coating” value was “more initial cooling and more mouth-coating”; the “overall impact compared with the reference sample” value is reported as “stronger overall impact”. In assay [4], the “cooling compared with the reference sample” value is listed as “more intense cooling than the reference sample”; the “onset and location of the cooling effect” value was “its effect is immediate and through the whole oral cavity”. In addition, in assay [5], the “after-taste compared to the reference sample” value was “more a hot, tingling after-taste” and the “initial hotness compared to the reference sample” value is listed as “initial hotness was increased”.
